Assay results as given in US20120295838A1, “Selective poly-substituted glycine antibiotics and related compositions” (priority 2008, published 2012).
Numbered stars: 1 amine (or outer) side, 2 acyl side, 3 side chain; on linkers, the order of the positions; unused ones are H or OH. Square brackets hold non-standard residues; d marks the D form. Ends that are not written are not given here. Peptide text beside a SMILES is read from it. Gly(N-CH2CH2-imidazol-4-yl) = O=C(O)CNCCc1c[nH]cn1; X1 = CC(C)[C@H](C)N(CC(=O)[*:2])[*:1]; Nspe = C[C@H](NCC(=O)O)c1ccccc1; Nlys = NCCCCNCC(=O)O

Key:
[1] = test system: E. coli JM109; assay type: cell-based; settings: Table 1; SR = (HD10)/(E. coli MIC); listed as 1-/Vhis6,12
Text: An initial set of 15 ampetoid analogs was synthesized to determine whether peptoids are affected by structural and sequence modifications in a manner consistent with AMP activities. The designs for ampetoids in this library were derived from two antibacterial and selective amphipathic dodecamers, 1 and 2. Peptoid 1 [H-(Nlys-Nspe-Nspe)4-NH2] is composed of 2/3 Nspe, the peptoid analog of phenylalanine, and 1/3 Mys, the peptoid analog of lysine (see FIG. 1 for the structures of representative peptoid monomers and corresponding N-substituents). Peptoid 2 [H-(Mys-Nssb-Nspe)4-NH2] contains 1/3 isoleucine-like Nssb monomers in place of Nspe. The variant sequences were designed to effect changes in chirality, length, hydrophobicity, charge, and amphipathicity. All of these compounds were tested for antibacterial activity against representative BSL1 Gram-negative (E. coli JM109) and Gram-positive (B. subtilis BR151) bacterial strains. As an initial measure of selectivity, the lytic activity of the peptoids was determined against human erythrocytes. Table 1 summarizes the sequences synthesized, the solvent composition at RP-HPLC elution as a relative measure of molecular hydrophobicity, and antibacterial and hemolytic activities.
Antibacterial assays. MICs were determined according to CLSI M7-A6 protocols in a 96-well microtiter plate. […]

[2] = test system: Staphyloccus aureus (ATCC #25923); assay: Murine intraperitoneal infection model; assay type: in vivo; settings: mouse, S. aureus I.P.
Experimental: Using a murine peritoneal injection mouse model, the ability of peptoids to treat infection was evaluated in vivo. The results from three separate studies of peptoid 1 and two of peptoid 1-Nhis6,12 against saline treated controls are shown in FIG. 7. The horizontal line represents the geometric mean of each population.
Murine intraperitoneal infection model. Bacteria was prepared by inoculating 5 mL of MHB with a single colony of Staphyloccus aureus (ATCC #25923) from a freshly streaked plate and grown overnight at 37 C. The following morning, the bacteria was subcultured by diluting 1/3 in MHB and grown for approximately 1 .5 hours. The bacteria were then diluted 10-fold in a 5% mucin in PBS solution and thoroughly mixed. A sample was reserved to later determine the amount of bacteria the mice received.
Mice were weighed, marked, and injected I.P. with 200 uL of S. aureus inoculum. Four hours post infection, mice were treated I.P. with 4 mg/kg peptoid (˜100 ug per mouse). The infection is allowed to proceed overnight. Mice were euthanized by CO2 asphyxiation after 24 hours, and the peritoneal cavity was exposed and lavaged with 5 mL PBS. The lavage was mixed and reserved on ice until plating. The lavages were diluted to 10^−5 (in1/10 increments) in PBS, and all dilutions were plated onto MH agar, in duplicate. 50 uL of lavage was spot plated, allowed to dry, and incubated overnight at 37° C. Colonies were counted the following day, and the CFU/ml of each sample was calculated. Plates that had too many colonies to count were assigned an arbitrary number of 1000 colonies.

[3] = MTS assay, NIH 3T3 cells; assay type: cell-based, mouse; settings: mouse, NIH 3T3 fibroblast cells
Outline: (§1)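 NIH/3T3 cells seeded at 5,000 per well, grown a day in DMEM with 10% FBS, then washed and exposed to serially diluted peptoid in HBSS together with MTS reagent. Absorbance at 490 nm read after 3 hours at 37 °C as a measure of metabolic activity; mean of six replicates.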

[4] = test system: NIH 3T3 mouse fibroblast cells; assay: MTS assay, NIH 3T3 cells; assay type: cell-based; settings: mouse, 3 h
Outline: as §1

Compound: C[C@@H](c1ccccc1)N(CC(=O)N(CCc1cnc[nH]1)CC(=O)N(CCCCN)CC(=O)N(CC(=O)N(CC(=O)N(CCCCN)CC(=O)N(CC(=O)N(CCc1cnc[nH]1)CC(N)=O)[C@@H](C)c1ccccc1)[C@@H](C)c1ccccc1)[C@@H](C)c1ccccc1)C(=O)CN(CCCCN)C(=O)CN(C(=O)CN(C(=O)CNCCCCN)[C@@H](C)c1ccccc1)[C@@H](C)c1ccccc1 [1-Nhis6,12, H-(Nlys-Nspe-Nspe-Nlys-Nspe-Nhis)2-NH2] (H-[Nlys][Nspe][Nspe][Nlys][Nspe][Gly(N-CH2CH2-imidazol-4-yl)][Nlys][Nspe][Nspe][Nlys][Nspe][Gly(N-CH2CH2-imidazol-4-yl)]-NH2)
- Selectivity ratio (SR) [1]: > 31
- bacterial counts from the peritoneal lavage ([2]; 4 mg/kg peptoid I.P. four hours post infection, 24 hours, vs saline treated controls): not reduced
- mice that died prematurely during the exposure period ([2]; 4 mg/kg peptoid I.P., eleven mice for 1-Nhis6,12): eight

Compound: CC(C)[C@H](C)N(CC(=O)N(CC(=O)N(CCCCN)CC(=O)N(CC(=O)N(CC(=O)N(CCCCN)CC(=O)N(CC(=O)N(CC(=O)N(CCCCN)CC(=O)N(CC(=O)N(CC(N)=O)[C@@H](C)c1ccccc1)[C@@H](C)C(C)C)[C@@H](C)c1ccccc1)[C@@H](C)C(C)C)[C@@H](C)c1ccccc1)[C@@H](C)C(C)C)[C@@H](C)c1ccccc1)C(=O)CNCCCCN [1-Nsdp2,5,8,11, H-(Nlys-Nsdp-Nspe)4-NH2] (H-[Nlys][X1][Nspe][Nlys][X1][Nspe][Nlys][X1][Nspe][Nlys][X1][Nspe]-NH2)
- CC50 at 3 h [3]: 20 µM

Compound: GIGKFLKKAKKFGKAFVKILKK-NH2 [pexiganan, reference compound]
- ID50 [4]: 9 µM
